Source: patent US11998546B2, “Pharmaceutical combinations comprising a histone deacetylase inhibitor and epothilone and methods of use thereof” (ACETYLON PHARMACEUTICALS, INC., priority 2016, dated 2024)

Legend:
TOV-21G cells [1] = assay: Cell proliferation of TOV-21G cells, crystal violet staining; type: cell-based; settings: seven days, Compound B (2 μM) and/or epothilone B (4 nM)
Description: The cells were then stained with crystal violet (hexamethyl pararosaniline chloride) dye. The crystal violet dye was extracted in 10% v/v acetic acid, and absorbance was measured in triplicate at a wavelength of 540 nm on a spectrophotometer (FIG. 2B).

TOV-21G cells [2] = assay: Multipolar spindle formation in TOV-21G cells (DAPI, NuMA, α-tubulin staining); type: cell-based; settings: 24 hours, 2 μM Compound B combined with 0.5 nM epothilone B vs single agents
Description: The cells were then stained with DAPI (to label DNA) and antibodies for α-tubulin and the spindle pole marker NuMA.
Cells in mitosis were then manually counted and scored for the presence of normal bipolar spindles or abnormal multipolar spindles. The frequency of cells with multipolar spindles was determined and scored in at least 100 cells from each treatment condition.

With O=C(CCCCCCNC(=O)c1cnc(N(c2ccccc2)c2ccccc2Cl)nc1)NO [Compound B, 2-((2-chlorophenyl)(phenyl)amino)-N-(7-(hydroxyamino)-7-oxoheptyl)pyrimidine-5-carboxamide] the “inhibition of tumor cell proliferation (crystal violet absorbance at 540 nm)” value (TOV-21G cells [1]) was “inhibition of tumor cell proliferation by Epotholine B was enhanced” and the “frequency of cells with multipolar mitotic spindles” value (TOV-21G cells [2]) was “enhanced the multipolar spindle formation induced by epothilone”.
